This is an account of results in PMC12001203, “Binding‐Site Purification of Actives (B‐SPA) Enables Efficient Large‐Scale Progression of Fragment Hits by Combining Multi‐Step Array Synthesis With HT Crystallography” (Angewandte Chemie (International Ed. in English), 2025).

Molecules are shown by their SMILES. pKd: −log10 of the molar value.

The experiment has as its target T1, Pleckstrin Homology Domain‐Interacting Protein, second bromodomain (PHIP(2)) (Homo sapiens, UniProt Q8WWQ0).
T1 construct: second bromodomain (PHIP(2))
The experiment is described as follows: grating-coupled interferometry (waveRAPID) Kd; crystal structure; AlphaScreen IC50. It is filed as binding. For orientation: Bead proximity is the source of the signal in Alpha formats.

Compound `O=C(Nc1nc2ccccc2o1)N1CCN(C(=O)c2ccco2)CC1` [PHIP-AM1-20, PHIP‐AM1‐20] gave a pKd of 4.30.

The term pKd denotes the negative decadic logarithm of the Kd, by convention in mol/L. A high value points to a low Kd.
